The target of the assay is LRRK2 (G2019S mutation, GST-LRRK2 (amino acids 970-2527)) (Homo sapiens (Human), UniProt Q5S007, G2019S). Kind of assay: LRRK2 Km ATP LanthaScreen Assay. It counts as biochemical. To be noted: mean IC50 of several test results. From the text:
Unless otherwise noted, all LRRK2 IC50 data presented in tables refers to the LRRK2 Km ATP LanthaScreen™ Assay that is described in the Biological Assay section.
The data presented for the Km ATP LanthaScreen™ Assay represents mean IC50 values based on several test results and may have reasonable deviations depending on the specific conditions and reagents used. Reagents for the LRRK2 Km ATP LanthaScreen™ Assay were purchased from Life Technologies Corporation.
LRRK2 Km ATP LanthaScreen™ Assay
a) 400 nl of a 1:2.15 serial dilution of test compound (98 μM top assay concentration) is spotted via Labcyte Echo to certain wells in a 384 well black, untreated plate. Control wells contain 400 nl of either DMSO or 400 nl of a known inhibitor in DMSO.
c) A 30 minute room temperature incubation is followed by addition of 10 μl of 800 nM fluorescein labeled LRRKtide peptide substrate and 186 μM ATP solution in 1× assay buffer to all wells.
d) After a 60 minute room temperature incubation, 20 μl of TR-FRET Dilution Buffer (Invitrogen PV3756B) containing 4 nM Tb-labeled anti-phospho LRRKtide antibody and 20 mM EDTA is added to all wells.
e) Plates are incubated at room temperature for 1 hour and read on an Envision™ multi-mode plate reader with LanthaScreen™ settings. Results are analysed using Assay Data Analyzer.

SMILES strings stand for the structures. Counter-ions that a name gives are not always drawn.

Sequence of LRRK2 (G2019S mutation, GST-LRRK2 (amino acids 970-2527)) (Q5S007 970-2527 G2019S): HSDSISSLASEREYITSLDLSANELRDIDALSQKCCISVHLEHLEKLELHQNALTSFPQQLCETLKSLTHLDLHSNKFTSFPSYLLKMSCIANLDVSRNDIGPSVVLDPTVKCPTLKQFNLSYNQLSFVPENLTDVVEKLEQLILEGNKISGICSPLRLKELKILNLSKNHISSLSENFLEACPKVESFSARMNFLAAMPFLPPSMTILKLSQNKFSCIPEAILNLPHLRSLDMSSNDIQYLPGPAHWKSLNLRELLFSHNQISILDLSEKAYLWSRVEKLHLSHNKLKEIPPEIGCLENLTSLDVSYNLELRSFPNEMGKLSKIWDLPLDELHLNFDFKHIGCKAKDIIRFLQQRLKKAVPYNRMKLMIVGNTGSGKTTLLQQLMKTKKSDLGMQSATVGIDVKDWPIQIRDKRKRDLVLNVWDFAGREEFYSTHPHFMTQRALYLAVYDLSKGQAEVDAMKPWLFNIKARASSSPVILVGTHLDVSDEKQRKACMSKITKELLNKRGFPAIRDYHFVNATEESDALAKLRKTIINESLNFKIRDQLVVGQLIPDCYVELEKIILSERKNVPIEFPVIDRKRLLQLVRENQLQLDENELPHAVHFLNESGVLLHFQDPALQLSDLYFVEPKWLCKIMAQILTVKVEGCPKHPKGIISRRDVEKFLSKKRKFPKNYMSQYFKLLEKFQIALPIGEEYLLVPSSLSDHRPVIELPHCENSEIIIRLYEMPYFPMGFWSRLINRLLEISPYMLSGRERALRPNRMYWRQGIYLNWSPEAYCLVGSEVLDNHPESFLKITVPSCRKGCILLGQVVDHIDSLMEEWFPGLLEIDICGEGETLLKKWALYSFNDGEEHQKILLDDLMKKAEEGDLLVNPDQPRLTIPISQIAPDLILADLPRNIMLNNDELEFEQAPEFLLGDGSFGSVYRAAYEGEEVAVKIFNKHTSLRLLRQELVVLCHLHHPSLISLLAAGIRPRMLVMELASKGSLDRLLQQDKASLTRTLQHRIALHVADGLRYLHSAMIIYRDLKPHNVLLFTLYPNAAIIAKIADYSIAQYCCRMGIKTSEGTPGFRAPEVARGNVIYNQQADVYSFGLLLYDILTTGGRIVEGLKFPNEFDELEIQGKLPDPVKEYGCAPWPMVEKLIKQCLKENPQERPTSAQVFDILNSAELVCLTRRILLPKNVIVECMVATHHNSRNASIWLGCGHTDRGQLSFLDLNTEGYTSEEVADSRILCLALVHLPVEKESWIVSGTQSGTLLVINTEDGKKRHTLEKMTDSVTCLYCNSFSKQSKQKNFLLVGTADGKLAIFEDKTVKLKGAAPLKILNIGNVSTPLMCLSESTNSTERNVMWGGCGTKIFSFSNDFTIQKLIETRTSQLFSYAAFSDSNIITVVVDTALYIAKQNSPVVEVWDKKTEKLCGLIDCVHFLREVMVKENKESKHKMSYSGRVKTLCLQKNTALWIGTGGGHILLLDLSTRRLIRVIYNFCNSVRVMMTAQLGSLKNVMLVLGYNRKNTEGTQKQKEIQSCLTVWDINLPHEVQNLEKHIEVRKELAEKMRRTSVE

Consider `CN1CCN(c2cc(-n3ncc4ccc(-c5cnn(C)c5)cc43)ccn2)CC1=O` [Example 10, 1-methyl-4-(4-(6-(1-methyl-1H-pyrazol-4-yl)-1H-indazol-1-yl)pyridin-2-yl)piperazin-2-one], for which 126 nM corresponded to half-maximal inhibition (IC50).
To `C[C@H]1CN(c2cc(-n3ncc4ccc(-c5cnn(C)c5)cc43)ccn2)CCO1` [Example 50, (S)-2-methyl-4-(4-(6-(1-methyl-1H-pyrazol-4-yl)-1H-indazol-1-yl)pyridin-2-yl)morpholine] belongs 141 nM; to `CCc1nnc2n1CCN(c1cc(-n3ncc4ccc(OC(C)C)cc43)ccn1)C2` [Example 24, 3-ethyl-7-(4-(6-isopropoxy-1H-indazol-1-yl)pyridin-2-yl)-5,6,7,8-tetrahydro-[1,2,4]triazolo[4,3-a]pyrazine], 435 nM.
To `Cn1cc(-c2ccc3cnn(-c4ccnc(N5CCC(C)(O)C5)c4)c3c2)cn1` (stereo not shown) [Example 53, 3-methyl-1-(4-(6-(1-methyl-1H-pyrazol-4-yl)-1H-indazol-1-yl)pyridin-2-yl)pyrrolidin-3-ol] belongs 131 nM.
The result for `CCn1cc(-c2ccc3cnn(-c4ccnc(N5CCOCC5)c4)c3c2)cn1` [Example 19, 4-(4-(6-(1-ethyl-1H-pyrazol-4-yl)-1H-indazol-1-yl)pyridin-2-yl)morpholine] reads 128 nM.
As to `c1ccc2c(c1)cnn2-c1ccnc(N2CCOCC2)c1` [Example 2, 4-(4-(1H-indazol-1-yl)pyridin-2-yl)morpholine], the IC50 – broadly, the midpoint of a concentration-inhibition curve – is 633 nM.
The result for `CC(C)Oc1ccc2cnn(-c3ccnc(N4CCO[C@H](C)C4)c3)c2c1` [Example 29, (R)-4-(4-(6-isopropoxy-1H-indazol-1-yl)pyridin-2-yl)-2-methylmorpholine] reads 490 nM.
Take `Cn1cncc1-c1ccc2cnn(-c3ccnc(N4CCOCC4)c3)c2c1` [Example 6, 4-(4-(6-(1-methyl-1H-imidazol-5-yl)-1H-indazol-1-yl)pyridin-2-yl)morpholine]: the midpoint of inhibition, the IC50, lay at 119 nM.
The result for `CC(C)Oc1ccc2cnn(-c3ccnc(N4CCOCC4)c3)c2c1` [Example 4, 4-(4-(6-isopropoxy-1H-indazol-1-yl)pyridin-2-yl)morpholine hydrochloride] reads 122 nM; that for `CC(C)Oc1ccc2cnn(-c3ccnc(N4CCO[C@@H](C)C4)c3)c2c1` [Example 28, (S)-4-(4-(6-isopropoxy-1H-indazol-1-yl)pyridin-2-yl)-2-methylmorpholine], 612 nM; that for `CC(C)Oc1ccc2cnn(-c3ccnc(N4CCN(c5ncccn5)CC4)c3)c2c1` [Example 33, 6-isopropoxy-1-(2-(4-(pyrimidin-2-yl)piperazin-1-yl)pyridin-4-yl)-1H-indazole], 326 nM.
Compound `c1cncc(-c2ccc3cnn(-c4cc(N5CCOCC5)ncn4)c3c2)c1` [Example 67, 1-(6-morpholin-4-ylpyrimidin-4-yl)-6-pyridin-3-yl-1H-indazole] showed an IC50 of 130 nM.
In the case of `CC(C)Oc1ccc2cnn(-c3ccnc(N4CCC4)c3)c2c1` [Example 26, 1-(2-(azetidin-1-yl)pyridin-4-yl)-6-isopropoxy-1H-indazole], 584 nM corresponded to half-maximal inhibition (IC50).
`Cn1cc(-c2ccc3cnn(-c4ccnc(N5CCCCC5)c4)c3c2)cn1` [Example 45, 6-(1-methyl-1H-pyrazol-4-yl)-1-(2-(pipendin-1-yl)pyridin-4-yl)-1H-indazole] registered an IC50 of 141 nM.
The result for `CC(C)Oc1ccc2cnn(-c3ccnc(N4CCC(O)C4)c3)c2c1` (stereo not shown) [Example 34, 1-(4-(6-isopropoxy-1H-indazol-1-yl)pyridin-2-yl)pyrrolidin-3-ol] reads 307 nM; that for `Cn1cc(-c2ccc3cnn(-c4cc(N5CCN(S(C)(=O)=O)CC5)ncn4)c3c2)cn1` [Example 63, 6-(1-methyl-1H-pyrazol-4-yl)-1-{6-[4-(methylsulfonyl)piperazin-1-yl]pyrimidin-4-yl}-1H-indazole], 317 nM; that for `Cn1cc(-c2ccc3cnn(-c4ccnc(N5CCN(C(=O)OC(C)(C)C)CC5)c4)c3c2)cn1` [Example 15, tert-butyl 4-(4-(6-(1-methyl-1H-pyrazol-4-yl)-1H-indazol-1-yl)pyridin-2-yl)piperazine-1-carboxylate], 34 nM.
With `c1nc(N2CCOCC2)cc(-n2ncc3ccc(C4CC4)cc32)n1` [Example 71, 6-cyclopropyl-1-(6-morpholin-4-ylpyrimidin-4-yl)-1H-indazole], the concentration for half-maximal inhibition (IC50) worked out at 231 nM.
In the case of `CC(C)Oc1ccc2cnn(-c3ccnc(N4CC(C(C)(C)O)C4)c3)c2c1` [Example 30, 2-(1-(4-(6-isopropoxy-1H-indazol-1-yl)pyridin-2-yl)azetidin-3-yl)propan-2-ol], the IC50 was found to be 418 nM.
In turn, `Cn1cc(-c2ccc3cnn(-c4ccnc(N5CC(F)C5)c4)c3c2)cn1` [Example 14, 1-(2-(3-fluoroazetidin-1-yl)pyridin-4-yl)-6-(1-methyl-1H-pyrazol-4-yl)-1H-indazole] returned a half-maximal inhibitory concentration (IC50) of 145 nM.
To `CN1CCN(c2cc(-n3ncc4ccc(-c5cnn(C)c5)cc43)ccn2)CC1` [Example 9, 6-(1-methyl-1H-pyrazol-4-yl)-1-(2-(4-methylpiperazin-1-yl)pyridin-4-yl)-1H-indazole] belongs 56 nM; to `C[C@@H]1CN(c2cc(-n3ncc4ccc(-c5cnn(C)c5)cc43)ccn2)CCO1` [Example 49, (R)-2-methyl-4-(4-(6-(1-methyl-1H-pyrazol-4-yl)-1H-indazol-1-yl)pyridin-2-yl)morpholine], 89 nM.
Compound `c1cc(-c2ccc3cnn(-c4cc(N5CCOCC5)ncn4)c3c2)[nH]n1` [Example 69, 1-(6-morpholin-4-ylpyrimidin-4-yl)-6-(1H-pyrazol-5-yl)-1H-indazole] displayed a concentration for half-maximal inhibition (IC50) of 10.5 nM.
To `CC(C)Oc1ccc2cnn(-c3ccnc(N4CC[C@@H](F)C4)c3)c2c1` [Example 42, (R)-1-(2-(3-fluoropyrrolidin-1-yl)pyridin-4-yl)-6-isopropoxy-1H-indazole] belongs 412 nM; to `COC1CCCN(c2cc(-n3ncc4ccc(OC(C)C)cc43)ccn2)C1` (stereo not shown) [Example 36, 6-isopropoxy-1-(2-(3-methoxypiperidin-1-yl)pyridin-4-yl)-1H-indazole], 596 nM; to `CC(C)Oc1ccc2cnn(-c3ccnc(N4CC[C@H](F)C4)c3)c2c1` [Example 43, (S)-1-(2-(3-fluoropyrrolidin-1-yl)pyridin-4-yl)-6-isopropoxy-1H-indazole], 950 nM.
The result for `CC(C)Oc1ccc2cnn(-c3ccnc(N4CCn5ccnc5C4)c3)c2c1` [Example 23, 7-(4-(6-isopropoxy-1H-indazol-1-yl)pyridin-2-yl)-5,6,7,8-tetrahydroimidazo[1,2-a]pyrazine] reads 446 nM; that for `CC(C)Oc1ccc2cnn(-c3ccnc(N4C[C@@H](C)O[C@@H](C)C4)c3)c2c1` [Example 32, cis-4-(4-(6-isopropoxy-1H-indazol-1-yl)pyridin-2-yl)-2,6-dimethylmorpholine], 245 nM; that for `Cn1cc(-c2ccc3cnn(-c4cc(N5CCOCC5)ncn4)c3c2)cn1` [Example 68, 6-(1-methyl-1H-pyrazol-4-yl)-1-(6-morpholin-4-ylpyrimidin-4-yl)-1H-indazole], 79 nM.
Regarding `CO[C@H]1CN(c2cc(-n3ncc4ccc(-c5cnn(C)c5)cc43)ccn2)C[C@@H]1O` [Example 48, (3S,4S)-4-methoxy-1-(4-(6-(1-methyl-1H-pyrazol-4-yl)-1H-indazol-1-yl)pyridin-2-yl)pyrrolidin-3-ol], half-maximal inhibition (IC50) was put at 399 nM.
On to `CCc1nnc2n1CCN(c1cc(-n3ncc4ccc(-c5cnn(C)c5)cc43)ccn1)C2` [Example 51, 3-ethyl-7-(4-(6-(1-methyl-1H-pyrazol-4-yl)-1H-indazol-1-yl)pyridin-2-yl)-5,6,7,8-tetrahydro-[1,2,4]triazolo[4,3-a]pyrazine], for which inhibition was half-maximal at 217 nM (IC50).
To `CC(C)Oc1ccc2cnn(-c3ccnc(N4CCN(C)CC4)c3)c2c1` [Example 35, 6-isopropoxy-1-(2-(4-methylpiperazin-1-yl)pyridin-4-yl)-1H-indazole] belongs 181 nM; to `Cn1cc(-c2ccc3cnn(-c4ccnc(N5CCN(c6ccncn6)CC5)c4)c3c2)cn1` [Example 54, 6-(1-methyl-1H-pyrazol-4-yl)-1-(2-(4-(pyrimidin-4-yl)piperazin-1-yl)pyridin-4-yl)-1H-indazole], 97 nM.
In the case of `Cn1cc(-c2cc(F)c3cnn(-c4ccnc(N5CCOCC5)c4)c3c2)cn1` [Example 3, 4-(4-(4-fluoro-6-(1-methyl-1H-pyrazol-4-yl)-1H-indazol-1-yl)pyridin-2-yl)morpholine], 228 nM corresponded to half-maximal inhibition (IC50).
Compound `CS(=O)(=O)N1CCN(c2cc(-n3ncc4ccc(-c5cn[nH]c5)cc43)ncn2)CC1` [Example 66, 1-{6-[4-(methylsulfonyl)piperazin-1-yl]pyrimidin-4-yl}-6-(1H-pyrazol-4-yl)-1H-indazole] had an IC50 of 68 nM.
To `CS(=O)(=O)N1CCN(c2cc(-n3ncc4ccc(-c5ccn[nH]5)cc43)ncn2)CC1` [Example 64, 1-{6-[4-(methylsulfonyl)piperazin-1-yl]pyrimidin-4-yl}-6-(1H-pyrazol-5-yl)-1H-indazole] belongs 18 nM; to `CC(C)Oc1ccc2cnn(-c3ccnc(N4CCC(O)CC4)c3)c2c1` [Example 40, 1-(4-(6-isopropoxy-1H-indazol-1-yl)pyridin-2-yl)piperidin-4-ol], 378 nM.
